According to patent US20230146675A1, “PYRIMIDO[5,4-d]PYRIMIDINE DERIVATIVES AS ENT INHIBITORS FOR THE TREATMENT OF CANCERS, AND COMBINATION THEREOF WITH ADENOSINE RECEPTOR ANTAGONISTS” (ITEOS BELGIUM SA, priority 2020, published 2023):
pIC50: −log10 of the molar value.

Key:
Format in all cases: biochemical
[1] = target: T1, Human phosphodiesterase-4D2 (Homo sapiens, UniProt Q08499); test: PDE4D2 (h) assay
T1 construct: host or cells: Sf9 cells
Experimental: The test compound (compound 72), reference compound or water (control) were added to a buffer containing 40 mM Tris/HCl (pH 7.4), 8 mM MgCl2 and 1.7 mM EGTA/NaOH, 450 nM cAMP and 0.25 μCi [3H]cAMP. Thereafter, the reaction was initiated by addition of the enzyme (about 1.2 U) and the mixture was incubated for 20 min at 22° C. For basal control measurements, the enzyme was omitted from the reaction mixture. Following incubation SPA beads were added. After 30 min at 22° C. under shaking, the amount of [3H]5′AMP was quantified with a scintillation counter (MicroBeta, Perkin Elmer). The results were expressed as a percent inhibition of the control enzyme activity. The standard inhibitory reference compound was Ro 20-1724, which was tested in each experiment at several concentrations to obtain an inhibition curve from which its IC50 value was calculated. • Human phosphodiesterase-4D2 quantified by measuring the formation of 5′AMP from cAMP using a human recombinant enzyme expressed in Sf9 cells.
(§1) The test compound (compound 72), reference compound or water (control) were added to a buffer containing 40 mM Tris/HCl (pH 7.4) and 8 mM MgCl2, 450 nM cAMP and 0.0125 μCi [3H]cAMP. […] After 30 min at 22° C. under shaking, the amount of [3H]5′AMP was quantified with a scintillation counter (Topcount, Packard). The results were expressed as a percent inhibition of the control enzyme activity. […]

[2] = target: T2, Human phosphodiesterase-2A1 (Homo sapiens, UniProt O00408); test: PDE2A1 (h) assay
T2 construct: host or cells: Sf9 cells
Experimental: The test compound (compound 72), reference compound or water (control) were added to a buffer containing 40 mM Tris/HCl (pH 7.8), 3 mM MgCl2, 1.4 mM DTT, 0.21% BSA, 200 mM NH4Cl, 1 μM cGMP and 0.1 μCi [3H]cGMP. Thereafter, the reaction was initiated by addition of the enzyme (final amount depending on the efficiency of the isolation) and the mixture was incubated for 60 min at 22° C. For basal control measurements, the enzyme was omitted from the reaction mixture. Following incubation SPA beads were added. After 20 min at 22° C. under shaking, the amount of [3H]5′GMP was quantified with a scintillation counter (MicroBeta, Perkin Elmer). The results were expressed as a percent inhibition of the control enzyme activity.
The test compound (compound 72), reference compound or water (control) were added to a buffer containing 40 mM Tris/HCl (pH 7.4), 8 mM MgCl2 and 1.7 mM EGTA/NaOH, 1.8 μM cAMP and 1 μCi [3H]cAMP. Thereafter, the reaction was initiated by addition of the enzyme (about 2 ng) and the mixture was incubated for 15 min at 22° C. For basal control measurements, the enzyme was omitted from the reaction mixture. Following incubation SPA beads were added. After 30 min at 22° C. under shaking, the amount of [3H]5′AMP was quantified with a scintillation counter (MicroBeta, Perkin Elmer). The results were expressed as a percent inhibition of the control enzyme activity. […]

[3] = target: T3, Human phosphodiesterase-8A1 (Homo sapiens, UniProt O60658); test: PDE8A1 (h) assay
T3 construct: host or cells: Sf9 cells
Experimental: The test compound (compound 72), reference compound or water (control) were added to a buffer containing 40 mM Tris/HCl (pH 7.4) and 8 mM MgCl2, 63 nM cAMP and 0.035 μCi [3H]cAMP. Thereafter, the reaction was initiated by addition of the enzyme (about 0.6 U) and the mixture was incubated for 20 min at 22° C. For basal control measurements, the enzyme was omitted from the reaction mixture. Following incubation SPA beads were added. After 30 min at 22° C. under shaking, the amount of [3H]5′AMP was quantified with a scintillation counter (MicroBeta, Perkin Elmer). The results were expressed as a percent inhibition of the control enzyme activity. The standard inhibitory reference compound was BRL50481, which was tested in each experiment at several concentrations to obtain an inhibition curve from which its IC50 value was calculated. • Human phosphodiesterase-8A1 quantified by measuring the formation of 5′AMP from cAMP using a human recombinant enzyme expressed in Sf9 cells
as §1, with “180” for “450”, “0.1” for “0.0125”, “(MicroBeta, Perkin Elmer).” for “(Topcount, Packard).”

T1 sequence (Q08499 303-809 limits assumed): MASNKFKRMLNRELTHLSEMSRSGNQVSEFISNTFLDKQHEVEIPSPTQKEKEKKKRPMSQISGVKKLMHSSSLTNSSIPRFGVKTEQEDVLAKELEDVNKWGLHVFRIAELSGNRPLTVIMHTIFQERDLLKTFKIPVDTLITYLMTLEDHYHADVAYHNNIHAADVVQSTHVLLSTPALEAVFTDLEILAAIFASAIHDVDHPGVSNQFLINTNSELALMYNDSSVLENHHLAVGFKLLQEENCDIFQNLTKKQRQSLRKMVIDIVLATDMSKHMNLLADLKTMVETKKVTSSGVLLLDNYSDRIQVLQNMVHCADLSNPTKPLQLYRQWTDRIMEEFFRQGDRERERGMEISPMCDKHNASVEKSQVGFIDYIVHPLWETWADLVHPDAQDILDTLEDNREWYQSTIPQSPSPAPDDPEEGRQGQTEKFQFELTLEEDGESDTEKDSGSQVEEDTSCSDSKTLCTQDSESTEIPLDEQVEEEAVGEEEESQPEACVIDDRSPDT
T3 sequence (O60658 whole entry): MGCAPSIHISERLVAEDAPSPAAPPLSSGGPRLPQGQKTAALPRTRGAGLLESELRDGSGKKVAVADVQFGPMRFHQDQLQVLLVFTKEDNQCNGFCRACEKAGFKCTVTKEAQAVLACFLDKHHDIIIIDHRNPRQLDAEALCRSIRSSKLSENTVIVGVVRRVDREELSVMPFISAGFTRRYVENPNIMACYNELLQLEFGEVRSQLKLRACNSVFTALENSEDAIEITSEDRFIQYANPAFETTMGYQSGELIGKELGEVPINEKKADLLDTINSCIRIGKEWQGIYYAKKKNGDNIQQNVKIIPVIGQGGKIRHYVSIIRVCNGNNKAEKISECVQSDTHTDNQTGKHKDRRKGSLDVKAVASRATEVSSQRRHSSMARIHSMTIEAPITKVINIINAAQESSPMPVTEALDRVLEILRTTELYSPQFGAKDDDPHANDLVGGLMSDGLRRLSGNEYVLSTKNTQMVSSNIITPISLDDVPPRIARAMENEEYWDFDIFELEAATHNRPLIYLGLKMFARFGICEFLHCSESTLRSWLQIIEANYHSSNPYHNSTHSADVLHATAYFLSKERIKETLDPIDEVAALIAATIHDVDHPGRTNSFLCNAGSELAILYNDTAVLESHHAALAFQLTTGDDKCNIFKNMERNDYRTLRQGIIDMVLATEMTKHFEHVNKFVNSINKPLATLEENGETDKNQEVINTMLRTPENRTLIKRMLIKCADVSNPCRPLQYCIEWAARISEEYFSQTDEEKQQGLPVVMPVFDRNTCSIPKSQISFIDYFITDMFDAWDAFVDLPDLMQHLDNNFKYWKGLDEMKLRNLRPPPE
T2 sequence (O00408 1-920 isoform O00408-2): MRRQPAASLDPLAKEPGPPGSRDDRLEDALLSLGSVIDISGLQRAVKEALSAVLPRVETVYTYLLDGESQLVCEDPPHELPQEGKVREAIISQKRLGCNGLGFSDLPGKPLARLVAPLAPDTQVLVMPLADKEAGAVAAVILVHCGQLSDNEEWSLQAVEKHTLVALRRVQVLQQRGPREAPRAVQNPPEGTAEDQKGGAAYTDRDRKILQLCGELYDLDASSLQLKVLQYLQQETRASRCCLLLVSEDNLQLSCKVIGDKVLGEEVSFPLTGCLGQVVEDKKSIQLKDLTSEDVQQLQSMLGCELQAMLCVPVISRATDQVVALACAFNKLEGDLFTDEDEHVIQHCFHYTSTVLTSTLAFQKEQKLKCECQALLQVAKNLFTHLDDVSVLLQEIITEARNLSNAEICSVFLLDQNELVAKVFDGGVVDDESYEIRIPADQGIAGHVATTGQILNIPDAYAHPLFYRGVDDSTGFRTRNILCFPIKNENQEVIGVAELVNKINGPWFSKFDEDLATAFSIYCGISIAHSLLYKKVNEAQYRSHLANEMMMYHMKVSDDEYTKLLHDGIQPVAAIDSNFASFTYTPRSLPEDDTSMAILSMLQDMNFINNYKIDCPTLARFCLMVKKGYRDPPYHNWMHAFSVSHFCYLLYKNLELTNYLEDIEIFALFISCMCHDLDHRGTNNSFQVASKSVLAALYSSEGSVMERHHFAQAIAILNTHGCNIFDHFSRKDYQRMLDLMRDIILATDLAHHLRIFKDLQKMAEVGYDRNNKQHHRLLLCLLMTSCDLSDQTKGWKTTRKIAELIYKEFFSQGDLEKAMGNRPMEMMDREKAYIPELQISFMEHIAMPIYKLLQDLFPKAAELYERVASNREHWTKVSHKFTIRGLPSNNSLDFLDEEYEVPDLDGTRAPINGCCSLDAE

pIC50 [1]: 5.00 to 6.00
pIC50 [2]: < 5.00
pIC50 [3]: < 5.00
SMILES: COCCN(CCOC)c1nc(N2CCN(C)C(=O)C2)c2nc(N(CCOC)CCOC)nc(N3CCC(OC)CC3)c2n1 [Compound 72, 4-(2,6-bis(bis(2-methoxyethyl)amino)-8-(4-methoxypiperidin-1-yl)pyrimido[5,4-d]pyrimidin-4-yl)-1-methylpiperazin-2-one]
